# Experimental data from patent US12071443B2, “Prolyl hydroxylase domain-containing protein (PHD) inhibitors and uses thereof” (Insilico Medicine IP Limited, priority 2021, dated 2024).
# Columns and labels:
# [1] = biological target: PHD2 (Homo sapiens, UniProt Q9GZT9); test: PHD2 enzymatic assay (AlphaScreen); assay type: biochemical; conditions: PHD2 enzyme, AlphaScreen, IC50 from % inhibition; read-out: PHD2
# [2] = tested on: Caco2-HIF1α-HiBiT-clone-1 cells; test: Caco-2 HIF1α-HiBiT assay; assay type: cell-based; conditions: Homo sapiens, Caco-2; Caco2-HIF1α-HiBiT-clone-1 cells, 6 h incubation, luminescence; read-out: Caco2-HIF1α-HiBit assay - EC50
# Chain of PHD2 (Q9GZT9 whole entry): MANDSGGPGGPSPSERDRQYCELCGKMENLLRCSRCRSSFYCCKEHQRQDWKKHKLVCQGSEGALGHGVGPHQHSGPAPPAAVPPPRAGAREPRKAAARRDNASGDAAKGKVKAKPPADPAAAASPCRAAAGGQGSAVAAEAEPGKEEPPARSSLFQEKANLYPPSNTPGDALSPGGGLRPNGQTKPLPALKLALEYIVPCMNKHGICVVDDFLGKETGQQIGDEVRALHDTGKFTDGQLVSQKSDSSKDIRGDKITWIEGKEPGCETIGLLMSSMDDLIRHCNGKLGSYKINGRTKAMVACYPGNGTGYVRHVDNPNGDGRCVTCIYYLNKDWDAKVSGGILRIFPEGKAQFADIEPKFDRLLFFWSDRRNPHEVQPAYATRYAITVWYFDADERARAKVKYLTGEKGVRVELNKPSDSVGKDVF
Compound,IC50 [1] [µM],EC50 [2] [µM]
COc1cc(C#N)ncc1CNC(=O)c1ncc2nc(N3CCOCC3)ccc2c1O [Example 32],< 0.005,10 to 100
C[C@H]1CN(C(=O)OC(C)(C)C)CCN1c1ccc2c(O)c(C(=O)NCc3ccc(C#N)nc3)ncc2n1 [Example 139],< 0.005,2.5 to 5
CC1(OC(=O)N2CCN(c3ccc4c(O)c(C(=O)NCc5ccc(C#N)nc5)ncc4n3)CC2)CC1 [Example 137],< 0.005,< 2.5
"CC(C)(C)OC(=O)N1CCN(c2ccc3c(O)c(C(=O)NCc4ccc(C#N)nc4)ncc3n2)CC1 [Example 29, tert-butyl 4-(6-(((6-cyanopyridin-3-yl)methyl)carbamoyl)-5-hydroxy-1,7-naphthyridin-2-yl)piperazine-1-carboxylate]",< 0.005,< 2.5
N#Cc1ccc(CNC(=O)c2ncc3nc(N4CCN(C5CC5)[C@H](CO)C4)ccc3c2O)c(Cl)c1 [Example 71],0.005 to 0.02,2.5 to 5
CC(NC(=O)c1ncc2nc(N3CCOCC3)ccc2c1O)c1ccc(C#N)nc1 (stereo not shown) [Example 21],0.02 to 0.1,10 to 100
"N#Cc1ccc(CNC(=O)c2ncc3nc(N4CCN[C@@H](CO)C4)ccc3c2O)c(Cl)c1 [Example 60, (R)—N-(2-chloro-4-cyanobenzyl)-5-hydroxy-2-(3-(hydroxymethyl)piperazin-1-yl)-1,7-naphthyridine-6-carboxamide]",0.005 to 0.02,10 to 100
CC(C)(C)OC(=O)N1CCN(c2ccc3c(O)c(C(=O)NCc4ccc(C#N)nc4)ncc3n2)C[C@@H]1CO [Example 47],< 0.005,< 2.5
"CN1CCN(c2ccc3c(O)c(C(=O)NCc4ccc(C#N)cc4Cl)ncc3n2)C[C@@H]1CO [Example 59, (R)—N-(2-chloro-4-cyanobenzyl)-5-hydroxy-2-(3-(hydroxymethyl)-4-methylpiperazin-1-yl)-1,7-naphthyridine-6-carboxamide]",< 0.005,2.5 to 5
CC(C)(C)OC(=O)NC1CN(c2ccc3c(O)c(C(=O)NCc4ccc(C#N)nc4)ncc3n2)C1 [Example 127],< 0.005,< 2.5
N#Cc1ccc(CNC(=O)c2ncc3nc(N4CCN(CCO)CC4)ccc3c2O)cn1 [Example 74],< 0.005,2.5 to 5
COCCN1CCN(c2ccc3c(O)c(C(=O)NCc4ccc(C#N)nc4)ncc3n2)CC1 [Example 75],< 0.005,5 to 7.5
"N#Cc1ccc(COC(=O)c2ncc3nc(N4CC[C@@H](O)C4)ccc3c2O)cn1 [Example 15, (6-cyanopyridin-3-yl)methyl (R)-5-hydroxy-2-(3-hydroxypyrrolidin-1-yl)-1,7-naphthyridine-6-carboxylate]",1 to 100,10 to 100
CC(C)(C)OC(=O)N1CCN(c2ccc3c(O)c(C(=O)NCc4ccc(C#N)nc4)ncc3n2)C[C@@H]1C#N [Example 132],< 0.005,5 to 7.5
N#Cc1ccc(CNC(=O)c2ncc3nc(N4CCN(C5CC5)CC4)ccc3c2O)c(Cl)c1 [Example 4],0.005 to 0.02,10 to 100
C[C@@H]1CN(C(=O)OC(C)(C)C)CCN1c1ccc2c(O)c(C(=O)NCc3ccc(C#N)nc3)ncc2n1 [Example 150],< 0.005,< 2.5
CC1(C)CCN(c2ccc3c(O)c(C(=O)NCc4ccc(C#N)nc4)ncc3n2)CC1 [Example 155],–,7.5 to 10
N#Cc1ccc([C@@H](CO)NC(=O)c2ncc3nc(N4CCOCC4)ccc3c2O)cn1 [Example 64],0.1 to 1,10 to 100
COC(=O)[C@H]1CN(c2ccc3c(O)c(C(=O)NCc4ccc(C#N)nc4)ncc3n2)CCN1C1CC1 [Example 89],< 0.005,2.5 to 5

Compound,IC50 [1] [µM],EC50 [2] [µM]
"COCCC(=O)N1CCN(c2ccc3c(O)c(C(=O)NCc4ccc(C#N)nc4)ncc3n2)CC1 [Example 73, N-((6-cyanopyridin-3-yl)methyl)-5-hydroxy-2-(4-(3-methoxypropanoyl)piperazin-1-yl)-1,7-naphthyridine-6-carboxamide]",< 0.005,5 to 7.5
"N#Cc1ccc(CNC(=O)c2ncc3nc(N4CCN[C@@H](C(=O)O)C4)ccc3c2O)cn1 [Example 51, (R)-4-(6-(((6-cyanopyridin-3-yl)methyl)carbamoyl)-5-hydroxy-1,7-naphthyridin-2-yl)piperazine-2-carboxylic acid]",< 0.005,10 to 100
"N#Cc1ccc(CNC(=O)c2ncc3nc(N4CC[C@@H](O)C4)ccc3c2O)c(Cl)c1 [Example 6, (R)—N-(2-chloro-4-cyanobenzyl)-5-hydroxy-2-(3-hydroxypyrrolidin-1-yl)-1,7-naphthyridine-6-carboxamide]",0.005 to 0.02,2.5 to 5
N#Cc1ccc(CNC(=O)c2ncc3nc(N4CCOC4=O)ccc3c2O)cn1 [Example 103],< 0.005,2.5 to 5
CC(C)OC(=O)N1CCN(c2ccc3c(O)c(C(=O)NCc4ccc(C#N)nc4)ncc3n2)CC1 [Example 138],< 0.005,2.5 to 5
CC(C)(C)OC(=O)N1CCN(c2ccc3c(O)c(C(=O)NCc4cnc(C#N)nc4)ncc3n2)CC1 [Example 133],0.005 to 0.02,2.5 to 5
C[C@H](NC(=O)c1ncc2nc(N3CCOCC3)ccc2c1O)c1ccc(C#N)cc1 [Example 17],1 to 100,10 to 100
"CC(=O)N1CCN(c2ccc3c(O)c(C(=O)NCc4ccc(C#N)nc4)ncc3n2)C[C@@H]1CO [Example 46, (R)-2-(4-acetyl-3-(hydroxymethyl)piperazin-1-yl)-N-((6-cyanopyridin-3-yl)methyl)-5-hydroxy-1,7-naphthyridine-6-carboxamide]",< 0.005,10 to 100
Cc1cc(C#N)ncc1CNC(=O)c1ncc2nc(N3CCOCC3)ccc2c1O [Example 20],< 0.005,2.5 to 5
Cc1cc(C#N)ncc1CNC(=O)c1ncc2nc(N3CCN(C(=O)OC(C)(C)C)CC3)ccc2c1O [Example 135],–,< 2.5
CC(C)OC(=O)CC1CN(c2ccc3c(O)c(C(=O)NCc4ccc(C#N)nc4)ncc3n2)C1 [Example 154],–,< 2.5
"CC(C)(C)OC(=O)N1CCN(c2ccc3c(O)c(C(=O)NCc4cnc(C#N)cn4)ncc3n2)CC1 [Example 134, tert-butyl 4-(6-(((5-cyanopyrazin-2-yl)methyl)carbamoyl)-5-hydroxy-1,7-naphthyridin-2-yl)piperazine-1-carboxylate]",–,10 to 100
CCOC(=O)CC1CN(c2ccc3c(O)c(C(=O)NCc4ccc(C#N)nc4)ncc3n2)C1 [Example 153],–,2.5 to 5
"N#Cc1ccc(CNC(=O)c2ncc3nc(N4CCNCC4=O)ccc3c2O)cn1 [Example 102, N-((6-cyanopyridin-3-yl)methyl)-5-hydroxy-2-(2-oxopiperazin-1-yl)-1,7-naphthyridine-6-carboxamide]",0.1 to 1,–
N#Cc1ccc(CNC(=O)c2ncc3nc(N4CCOCC4)ncc3c2O)cn1 [Example 31],–,10 to 100
"COc1c(C(=O)NCc2ccc(C#N)nc2)ncc2nc(N3CCOCC3)ccc12 [Example 163, N-((6-cyanopyridin-3-yl)methyl)-5-methoxy-2-morpholino-1,7-naphthyridine-6-carboxamide]",0.1 to 1,–
N#Cc1cnc(CNC(=O)c2ncc3nc(N4CCOCC4)ccc3c2O)cn1 [Example 33],–,5 to 7.5
CC[C@H]1CN(C(=O)OC(C)(C)C)CCN1c1ccc2c(O)c(C(=O)NCc3ccc(C#N)nc3)ncc2n1 [Example 151],–,2.5 to 5
